Measured values as given in US20210198284A1, “GOLD COMPOSITIONS AND METHODS OF USE THEREOF” (THE UNIVERSITY OF MASSACHUSETTS, priority 2018, published 2021).
Like-named read-outs stand apart in the source and are kept apart here.

Experiments:
[1] = Log P determination (n-octanol/water, FAAS)
Summary of the method: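 Shake-flask partition between mutually saturated n-octanol and water; Au in each phase quantified by flame AAS against aqueous Au-standard and n-octanol calibration curves. Compound shaken ~4 h in water then 1 h with octanol, or 3-4 h in both phases then diluted and shaken 1 h; log P = log([oct]/[water]).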

E. faecalis ATCC 700221 = assay: Antibacterial assay, MIC/MBC by broth microdilution (CLSI); format: cell-based; details: for MIC: repeated twice, a/b = both values
Summary of the method: (§1)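 CLSI broth microdilution in cation-adjusted Mueller Hinton broth, log-phase inoculum diluted to 7.5×10^5 CFU/mL before 1:1 mixing with two-fold compound dilutions, triplicates, 18 h at 37 °C static. MIC: >90% inhibition by OD600; MBC: lowest concentration giving no colonies after 5 μL spotted on agar, 18 h, 37 °C.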

S. aureus JE2 (USA300) = assay: as above; format: cell-based; details: for MBC (in brackets) / MIC: S. aureus JE2 (USA300); for MIC: repeated twice, a/b = both values
Summary of the method: as §1

A. baumannii NCTC 13420 = assay: as above; format: cell-based
Summary of the method: as §1

E. cloacae NCTC 13405 = assay: as above; format: cell-based; details: for MBC (in brackets) / MIC: E. cloacae NCTC 13405; for MIC: repeated twice, a/b = both values
Summary of the method: as §1

[2] = tested on: K. pneumoniae ATCC 700603; assay: as above; format: cell-based
Summary of the method: as §1

E. coli ATCC 25922 = assay: as above; format: cell-based; details: for MIC: repeated twice, a/b = both values
Summary of the method: as §1

P. aeruginosa NCTC 13437 = assay: as above; format: cell-based; details: for MBC (in brackets) / MIC: P. aeruginosa NCTC 13437; for MIC: repeated twice, a/b = both values
Summary of the method: as §1

[3] = A. baumannii NCTC 13420, repeated twice, a/b = both values
[4] = K. pneumoniae ATCC 700603, repeated twice, a/b = both values

Substance	Log P [1]	MBC (in brackets) (E. faecalis ATCC 700221)	MBC (in brackets) (S. aureus JE2 (USA300))	MIC (S. aureus JE2 (USA300))	MBC (in brackets) (A. baumannii NCTC 13420; A. baumannii NCTC 13420)	MIC (A. baumannii NCTC 13420; [3])	MBC (in brackets) (E. cloacae NCTC 13405)	MIC (E. cloacae NCTC 13405)	MIC [2, 4]	MBC (in brackets) (E. coli ATCC 25922)	MIC (E. coli ATCC 25922)	MBC (in brackets) (P. aeruginosa NCTC 13437)	MIC (P. aeruginosa NCTC 13437)	MBC (in brackets) ([2]; K. pneumoniae ATCC 700603)	MIC (E. faecalis ATCC 700221)	other results
[2,3,4,6-Tetra-O-acetyl-α-D-glucopyranosyl (1→4)-2,3,6-tri-O-acetyl-1-thio-β-D-glucopyranosato](triethylphosphine) gold(I) [Compound 5]	0.45	6 (0.1) μM/mL	(0.06) μM/mL	0.008 μM/mL	33 (33) μM/mL	33 (33) μM/mL	66 (66) μM/mL	66 (66) μM/mL	>265 μM/mL	17 (17) μM/mL	17 (17) μM/mL	132 (132) μM/mL	132 (132) μM/mL	–	–	–
(2,3,4,6-Tetra-O-acetyl-1-thio-β-D-glucopyranosato) (triethylphosphine) gold(I) [Compound 1, reference compound]	–	–	(0.09) μM/mL	0.04 μM/mL	47(47) μM/mL	47(47) μM/mL	189 (189) μM/mL	189 (189) μM/mL	377 (377) μM/mL	24 (24) μM/mL	24 (24) μM/mL	377 (377) μM/mL	377 (377) μM/mL	377 (377) μM/mL	–	Log P ([1]; n-octanol/water, gold by FAAS): 0.56; MIC/MBC (A. baumannii NCTC 13420; A. baumannii): 47 µM; MIC/MBC ([2]; K. pneumoniae): 377 µM
(2-Mercaptoethanolato)(trimethylphosphine) gold (I) [Compound 27]	−0.15	0.3 (0.3) μM/mL	0.7 μM/mL	0.3 μM/mL	23 μM/mL	6/3	3 (3) μM/mL	3 (3) μM/mL	11 μM/mL	11 μM/mL	1/6	91 μM/mL	23/91	23 μM/mL	0.3 (0.3) μM/mL	MIC (A. baumannii NCTC 13420; A. baumannii): 5.7 µM; MIC/MBC (E. cloacae NCTC 13405; E. cloacae): 2.9 µM; MIC/MBC, fold lower than / improvement over auranofin (E. cloacae NCTC 13405; E. cloacae): 65 fold; MIC ([2]; K. pneumoniae): 11 µg/mL; MIC or MIC/MBC, fold lower than auranofin ([2]; K. pneumoniae): 34 fold; activity in words (P. aeruginosa NCTC 13437; P. aeruginosa): showed activity
(2-Aminobenzenethiolato)(triethylphosphine) gold(I) [Compound 19]	0.61	(0.1) μM/mL	(0.6) μM/mL	0.009 μM/mL	18 μM/mL	18/36	(36/73)	18/73	146 (146) μM/mL	36 (36) μM/mL	36 (36) μM/mL	291 (291) μM/mL	291 (291) μM/mL	146 (146) μM/mL	0.02 μM/mL	MIC values in words (S. aureus JE2 (USA300); S. aureus): nanomolar range
